Assay results reported in patent US20240308996A1, “PYRIDOPYRIDINES AND DERIVATIVES THEREOF AS SELECTIVE KINASE INHIBITORS” (University of Sharjah, priority 2023, published 2024).

Legend:
Format in all cases: cell-based
CCRF-CEM = experiment: NCI-60 cell line panel: CCRF-CEM; conditions: Leukemia; for IC50: Homo sapiens; for TGI: total growth inhibition
Protocol: (§1) It was carried out at the NCI, Bethesda, MD, USA, utilizing their standard protocol.

HL-60(TB) = experiment: NCI-60 cell line panel: HL-60(TB); parameters: TGI: unit not given here; conditions: Leukemia; for IC50: Homo sapiens; for TGI: total growth inhibition
Protocol: as §1

HOP-62 = experiment: NCI-60 cell line panel: HOP-62; conditions: Non-Small Cell Lung Cancer; for IC50: Homo sapiens; for TGI: total growth inhibition
Protocol: as §1

HOP-92 = experiment: NCI-60 cell line panel: HOP-92; parameters: TGI: unit not given here; conditions: Non-Small Cell Lung Cancer; for IC50: Homo sapiens; for TGI: total growth inhibition
Protocol: as §1

NCI-H23 = experiment: NCI-60 cell line panel: NCI-H23; conditions: Non-Small Cell Lung Cancer; for IC50: Homo sapiens; for TGI: total growth inhibition
Protocol: as §1

COLO 205 = experiment: NCI-60 cell line panel: COLO 205; parameters: TGI: unit not given here; conditions: Colon Cancer; for TGI: total growth inhibition; for IC50: Homo sapiens
Protocol: as §1

HCC-2998 = experiment: NCI-60 cell line panel: HCC-2998; conditions: Colon Cancer; for TGI: total growth inhibition; for IC50: Homo sapiens
Protocol: as §1

HCT-116 = experiment: NCI-60 cell line panel: HCT-116; conditions: Colon Cancer; for TGI: total growth inhibition; for IC50: Homo sapiens
Protocol: as §1

HCT-15 = experiment: NCI-60 cell line panel: HCT-15; conditions: Colon Cancer; for TGI: total growth inhibition; for IC50: Homo sapiens
Protocol: as §1

KM12 = experiment: NCI-60 cell line panel: KM12; conditions: Colon Cancer; for TGI: total growth inhibition; for IC50: Homo sapiens
Protocol: as §1

SNB-19 = experiment: NCI-60 cell line panel: SNB-19; conditions: CNS Cancer; for TGI: total growth inhibition; for IC50: Homo sapiens
Protocol: as §1

MDA-MB-435 = experiment: NCI-60 cell line panel: MDA-MB-435; parameters: TGI: unit not given here; conditions: Melanoma; for IC50: Homo sapiens; for TGI: total growth inhibition
Protocol: as §1

SK-MEL-28 = experiment: NCI-60 cell line panel: SK-MEL-28; conditions: Melanoma; for IC50: Homo sapiens; for TGI: total growth inhibition
Protocol: as §1

SK-MEL-5 = experiment: NCI-60 cell line panel: SK-MEL-5; conditions: Melanoma; for IC50: Homo sapiens; for TGI: total growth inhibition
Protocol: as §1

UACC-62 = experiment: NCI-60 cell line panel: UACC-62; conditions: Melanoma; for IC50: Homo sapiens; for TGI: total growth inhibition
Protocol: as §1

OVCAR-4 = experiment: NCI-60 cell line panel: OVCAR-4; conditions: Ovarian Cancer; for IC50: Homo sapiens; for TGI: total growth inhibition, in µM (unit assumed)
Protocol: as §1

OVCAR-8 = experiment: NCI-60 cell line panel: OVCAR-8; conditions: Ovarian Cancer; for IC50: Homo sapiens; for TGI: total growth inhibition, in µM (unit assumed)
Protocol: as §1

NCI/ADR-RES = experiment: NCI-60 cell line panel: NCI/ADR-RES; parameters: TGI: unit not given here; conditions: Ovarian Cancer; for IC50: Homo sapiens; for TGI: total growth inhibition
Protocol: as §1

786-0 = experiment: NCI-60 cell line panel: 786-0; conditions: Renal Cancer; for IC50: Homo sapiens; for TGI: total growth inhibition
Protocol: as §1

CAKI-1 = experiment: NCI-60 cell line panel: CAKI-1; parameters: TGI: unit not given here; conditions: Renal Cancer; for IC50: Homo sapiens; for TGI: total growth inhibition
Protocol: as §1

PC-3 = experiment: NCI-60 cell line panel: PC-3; conditions: Prostate Cancer; for IC50: Homo sapiens; for TGI: total growth inhibition
Protocol: as §1

DU-145 = experiment: NCI-60 cell line panel: DU-145; conditions: Prostate Cancer; for IC50: Homo sapiens; for TGI: total growth inhibition
Protocol: as §1

MCF7 = experiment: NCI-60 cell line panel: MCF7; conditions: Breast Cancer; for TGI: total growth inhibition; for IC50: Homo sapiens
Protocol: as §1

HS 578T = experiment: NCI-60 cell line panel: HS 578T; conditions: for TGI: Breast Cancer, HS 578T, total growth inhibition; for IC50: Homo sapiens, Hs-578T
Protocol: as §1

BT-549 = experiment: NCI-60 cell line panel: BT-549; conditions: Breast Cancer; for TGI: total growth inhibition; for IC50: Homo sapiens
Protocol: as §1

MDA-MB-468 = experiment: NCI-60 cell line panel: MDA-MB-468; conditions: Breast Cancer; for TGI: total growth inhibition; for IC50: Homo sapiens
Protocol: as §1

HepG2 = experiment: MTT assay, HepG2 HCC cell line; conditions: Homo sapiens, 48 h, mean of triplicate assays ± SEM
Protocol: (§2) Two HCC cell lines (Hep3B and HepG2) were used for screening the antiproliferative activity of the synthesized compounds. The cell lines were obtained from the European Collection of Cell Cultures (ECACC, UK) and maintained in Dulbecco's Modified Eagle Medium (DMEM: Sigma-Aldrich) supplemented with 10% fetal bovine serum (FBS) and 1% penicillin/streptomycin and incubated at 37° C. in a 5% CO2 air atmosphere. In addition, WI-38 normal cell line was used to investigate the safety of these compounds.
MTT assay was conducted to calculate the IC50 of the compounds following the reported procedure . Briefly, the cells were seeded in 96-well tissue culture plates with a density of 5×10^4 cells/well and incubated overnight at 37° C. in a 5% CO2 air atmosphere. […] DMSO was used as a negative control. After 48 h, the media were aspirated, and replaced with media containing 0.5 mg/mL of MTT tetrazolium dye (Sigma-Aldrich) for 2 h at 37° C. Finally, the media were removed and 200 μL of DMSO was added to solubilize the formazan crystals. Absorbance was then measured at 570 nm using Varioskan Flash multimode plate reader (Thermo Scientific, Massachusetts, USA).

[1] = test system: hepatocellular carcinoma cell lines; experiment: Screening against HCC cell lines
Protocol: The target compounds were tested against hepatocellular carcinoma cell lines. Compounds 1j. 13a. 13b. 13c. […] The mean inhibition percentage values are illustrated in Table 9.
as §2
MTT assay was conducted to calculate the IC50 of the compounds following the reported procedure . Briefly, the cells were seeded in 96-well tissue culture plates with a density of 5×10^4 cells/well and incubated overnight at 37° C. in a 5% CO2 air atmosphere. After that, cells were treated with the newly synthesized compounds or sorafenib as a positive control. DMSO was used as a negative control. After 48 h, the media were aspirated, and replaced with media containing 0.5 mg/mL of MTT tetrazolium dye (Sigma-Aldrich) for 2 h at 37° C. Finally, the media were removed and 200 μL of DMSO was added to solubilize the formazan crystals. Absorbance was then measured at 570 nm using Varioskan Flash multimode plate reader (Thermo Scientific, Massachusetts, USA).

## CC(C)NC(=O)c1cc(-c2ccc(NC(=O)Nc3ccc(N4CCN(C)CC4)c(C(F)(F)F)c3)cc2)nc2cccnc12 [Compound 13e, N-Isopropyl-2-(4-(3-(4-(4-methylpiperazin-1-yl)-3-(trifluoromethyl)phenyl)ureido)phenyl)-1,5-naphthyridine-4-carboxamide]
CCRF-CEM
  IC50: 740 nM
  TGI: 1.98 µM
HL-60(TB)
  IC50: 770 nM
  TGI: 2.12
HOP-62
  IC50: 870 nM
  TGI: 1.94 µM
HOP-92
  IC50: 700 nM
  TGI: 1.33
NCI-H23
  IC50: 730 nM
  TGI: 1.46 µM
COLO 205
  TGI: 1.86
  IC50: 850 nM
HCC-2998
  TGI: 1.36 µM
  IC50: 700 nM
HCT-116
  TGI: 1.35 µM
  IC50: 690 nM
HCT-15
  TGI: 1.41 µM
  IC50: 700 nM
KM12
  TGI: 1.66 µM
  IC50: 800 nM
SNB-19
  TGI: 1.56 µM
  IC50: 730 nM
MDA-MB-435
  IC50: 620 nM
  TGI: 1.26
SK-MEL-28
  IC50: 640 nM
  TGI: 1.17 µM
SK-MEL-5
  IC50: 670 nM
  TGI: 1.21 µM
UACC-62
  IC50: 660 nM
  TGI: 1.24 µM
OVCAR-4
  IC50: 740 nM
  TGI: 1.62
OVCAR-8
  IC50: 0.84 µM
  TGI: 1.95
NCI/ADR-RES
  IC50: 1170 nM
  TGI: 3.71
786-0
  IC50: 530 nM
  TGI: 1.1 µM
CAKI-1
  IC50: 650 nM
  TGI: 1.22
PC-3
  IC50: 720 nM
  TGI: 1.52 µM
DU-145
  IC50: 720 nM
  TGI: 1.35 µM
MCF7
  TGI: 1.3 µM
  IC50: 650 nM
HS 578T
  TGI: 2.19 µM
  IC50: 710 nM
BT-549
  TGI: 7.41 µM
  IC50: 2.1 µM
MDA-MB-468
  TGI: 1.36 µM
  IC50: 710 nM
HepG2
  IC50: 800 ± 40 nM
[1]
  inhibition activity against hepatocellular carcinoma cell lines compared with sorafenib: higher inhibition activity than sorafenib

## CCN1CCN(c2ccc(NC(=O)Nc3ccc(-c4cc(C(=O)NC(C)C)c5ncccc5n4)cc3)cc2C(F)(F)F)CC1 [Compound 13f, 2-(4-(3-(4-(4-Ethylpiperazin-1-yl)-3-(trifluoromethyl)phenyl)ureido)phenyl)-N-isopropyl-1,5-naphthyridine-4-carboxamide]
CCRF-CEM
  IC50: 1010 nM
  TGI: 3.1 µM
HL-60(TB)
  IC50: 1070 nM
  TGI: 5.89
HOP-62
  IC50: 3830 nM
  TGI: 8.89 µM
HOP-92
  IC50: 3140 nM
  TGI: 8.29
NCI-H23
  IC50: 2050 nM
  TGI: 7.27 µM
COLO 205
  TGI: 2.71
  IC50: 930 nM
HCC-2998
  TGI: 5.09 µM
  IC50: 1440 nM
HCT-116
  TGI: 1.3 µM
  IC50: 640 nM
HCT-15
  TGI: 1.35 µM
  IC50: 670 nM
KM12
  TGI: 2.91 µM
  IC50: 1010 nM
SNB-19
  TGI: 9.12 µM
  IC50: 4240 nM
MDA-MB-435
  IC50: 650 nM
  TGI: 1.31
SK-MEL-28
  IC50: 750 nM
  TGI: 1.85 µM
SK-MEL-5
  IC50: 1410 nM
  TGI: 5.28 µM
UACC-62
  IC50: 3990 nM
  TGI: 8.28 µM
OVCAR-4
  IC50: 880 nM
  TGI: 2.45
OVCAR-8
  IC50: 5.69 µM
  TGI: 17.5
NCI/ADR-RES
  IC50: 3660 nM
  TGI: 10.00
786-0
  IC50: 500 nM
  TGI: 1.03 µM
CAKI-1
  IC50: 800 nM
  TGI: 2.08
PC-3
  IC50: 760 nM
  TGI: 2.1 µM
DU-145
  IC50: 750 nM
  TGI: 1.58 µM
MCF7
  TGI: 1.5 µM
  IC50: 630 nM
HS 578T
  TGI: 3.45 µM
  IC50: 880 nM
BT-549
  TGI: 9.57 µM
  IC50: 4.83 µM
MDA-MB-468
  TGI: 1.85 µM
  IC50: 770 nM
HepG2
  IC50: 460 ± 60 nM
[1]
  inhibition activity against hepatocellular carcinoma cell lines compared with sorafenib: higher inhibition activity than sorafenib
